This passage reports activation results from patent EP3246028A1, “QUINOLINE COMPOUNDS FOR INCREASING INSULINE RELEASE” (Max-Planck-Gesellschaft zur Förderung der Wissenschaften …, priority 2016, dated 2017).

The subject of this assay is RIN-5AH insulinoma beta cell line. Nature of the assay: Insulin secretion (insulin ELISA of supernatants). The class given is cell-based. To be noted: RIN-5AH cells, 5 µM, treated in medium for 2 hours; read-out: AV_INSULIN (percent increase in insulin secretion over a DMSO control). As to the method:
Culture medium and supplements were purchased from Life Technologies. The RIN-5AH insulinoma beta cell line was cultured in RPMI 1640 supplemented with 10% FBS, 2 mM glutamine. All culture media contained 1x penicillin-streptomycin. Cells were grown on 15 cm culture plates at 37°C under 5% CO2 in high humidity atmosphere.
To determine the insulin level from the supernatants insulin ELISA kits from Millipore or Mercodia were used. RIN-5AH cells were seeded in 96 well or 12 well plates and grown overnight. RIN-5AH cells never reached more than 80% confluency before treatment. Cells were washed once with PBS before treatment. Cells were treated in medium for 2 hours and with 5 µM of insulin secretagogue according to the present invention, if not otherwise indicated. After treatment 100ul of supernatant was taken. Samples were assayed immediately or stored at -20°C until measurement. Dilutions were made if necessary and ELISA was subsequently performed according to the user's manual. Insulin secretion was normalized to cell number by MTT assay or to total protein amount by BCA assay (ThermoFisher Scientific, 23225). Plates were read on BioTrek Elx800 absorbance reader at 450 nm.
RIN-5AH beta cells were treated with 5 µM compound 12 or 50 µM quinidine or chloroquine according to the above described protocol (Example 1).
With `N#Cc1cc(-c2cccc(N)c2)c2ccc(F)cc2n1` [Compound 1, 4-(3-aminophenyl)-7-fluoro-quinoline-2-carbonitrile], the activation at 5 µM was 151%.

As to `CN(C)C(=O)c1cc(Nc2cc(C#N)nc3c(Br)cccc23)c(Cl)cc1Cl` [Compound 2, 5-[(8-bromo-2-cyano-4-quinolyl)amino]-2,4-dichloro-N,N-dimethyl-benzamide], the activation at 5 µM turned out to be 125%.

For the molecule `COc1cc(Nc2cc(C#N)nc3c(Br)cccc23)c(Cl)cc1Cl` [Compound 3, 8-bromo-4-(2,4-dichloro-5-methoxy-anilino)quinoline-2-carbonitrile], the activation at 5 µM was found to be 116%.

On to `N#Cc1cc(-c2cccc(NS(=O)(=O)c3c(F)cccc3F)c2)c2ccc(F)cc2n1` [Compound 6, N-[3-(2-cyano-7-fluoro-4-quinolyl)phenyl]-2,6-difluoro-benzenesulfonamide], for which the activation at 5 µM stood at 94%.

`COc1cc2c(Oc3ccc(NS(=O)(=O)c4cccc(-c5ccccc5)c4)cc3F)ccnc2cc1OCCCN` [Compound 9, N-[4-[[7-(3-aminopropoxy)-6-methoxy-4-quinolyl]oxy]-3-fluoro-phenyl]-3-phenyl-benzenesulfonamide]: the activation at 5 µM amounted to 90%.

Regarding `COc1cc(Nc2cc(C#N)nc3ccc(F)cc23)c(Cl)cc1Cl` [Compound 10, 4-(2,4-dichloro-5-methoxy-anilino)-6-fluoro-quinoline-2-carbonitrile], the activation at 5 µM was 89%.

Regarding `N#Cc1cc(-c2cccc(NC(=O)c3cccc(C(F)(F)F)c3)c2)c2ccc(F)cc2n1` [Compound 11, N-[3-(2-cyano-7-fluoro-4-quinolyl)phenyl]-3-(trifluoromethyl)benzamide], the activation at 5 µM worked out at 86%.

`N#Cc1cc(Nc2ccc(F)c(Cl)c2)c2cc(Cl)cc(Cl)c2n1` [Compound 14, 6,8-dichloro-4-(3-chloro-4-fluoro-anilino)quinoline-2-carbonitrile]: the activation at 5 µM is 78%.

Turning to `COc1ccc2nc(C#N)cc(Nc3cc(OC)c(Cl)cc3Cl)c2c1` [Compound 15, 4-(2,4-dichloro-5-methoxy-anilino)-6-methoxy-quinoline-2-carbonitrile], the activation at 5 µM came out at 78%.

For the molecule `COc1c(F)ccc2c(Nc3ccc(C)c(C)c3)cc(C#N)nc12` [Compound 16, 4-(3,4-dimethylanilino)-7-fluoro-8-methoxy-quinoline-2-carbonitrile], the activation at 5 µM is 78%.

`COc1cc(Nc2c(C#N)cnc3cc(OCCCN)c(OC)cc23)c(Cl)cc1Cl` [Compound 17, 7-(3-aminopropoxy)-4-(2,4-dichloro-5-methoxy-anilino)-6-methoxy-quinoline-3-carbonitrile]: the activation at 5 µM came to 74%.

`COc1cc(Nc2cc(C#N)nc3c(F)cccc23)c(Cl)cc1Cl` [Compound 19, 4-(2,4-dichloro-5-methoxy-anilino)-8-fluoro-quinoline-2-carbonitrile]: the activation at 5 µM came to 70%.

As to `COc1cc2c(Nc3ccc(Cl)cc3Cl)c(C#N)cnc2cc1OCCCN` [Compound 20, 7-(3-aminopropoxy)-4-(2,4-dichloroanilino)-6-methoxy-quinoline-3-carbonitrile], the activation at 5 µM came out at 67%.

For the molecule `COc1cc2c(Nc3c(Cl)cccc3Cl)cc(C#N)nc2cc1F` [Compound 21, 4-(2,6-dichloroanilino)-7-fluoro-6-methoxy-quinoline-2-carbonitrile], the activation at 5 µM turned out to be 65%.

As for `COc1cc(Nc2cc(C#N)nc3c(C(F)(F)F)cccc23)c(Cl)cc1Cl` [Compound 22, 4-(2,4-dichloro-5-methoxy-anilino)-8-(trifluoromethyl)quinoline-2-carbonitrile], the activation at 5 µM came out at 58%.

In the case of `CN(C)Cc1cc(Nc2cc(C#N)nc3cc(F)ccc23)c(Cl)cc1Cl` [Compound 23, 4-[2,4-dichloro-5-(dimethylaminomethyl)anilino]-7-fluoro-quinoline-2-carbonitrile], the activation at 5 µM was determined as 57%.

Take `COc1cc2nccc(-c3cccc(Nc4cc(C#N)nc5c(F)cccc45)c3)c2cc1OC` [Compound 24, 4-[3-(6,7-dimethoxy-4-quinolyl)anilino]-8-fluoro-quinoline-2-carbonitrile]: the activation at 5 µM stood at 57%.

For the molecule `CN(C)C(=O)c1cc(Nc2cc(C#N)nc3c(F)cccc23)c(Cl)cc1Cl` [Compound 25, 2,4-dichloro-5-[(2-cyano-8-fluoro-4-quinolyl)amino]-N,N-dimethyl-benzamide], the activation at 5 µM is 48%.

Take `COc1cc2c(Oc3ccc(NS(=O)(=O)c4cccc(-c5ccccc5)c4)cc3F)ccnc2cc1OCCCN1CCOCC1` [Compound 26, N-[3-fluoro-4-[[6-methoxy-7-(3-morpholinopropoxy)-4-quinolyl]oxy]phenyl]-3-phenyl-benzenesulfonamide]: the activation at 5 µM is 47%.

As to `COc1cc2nccc(-c3cccc(Nc4cc(C(N)=O)nc5c(F)cccc45)c3)c2cc1OC` [Compound 27, 4-[3-(6,7-dimethoxy-4-quinolyl)anilino]-8-fluoro-quinoline-2-carboxamide], the activation at 5 µM was determined as 46%.

For `CN(C)C(=O)c1cc(Nc2cc(C#N)nc3cc(F)ccc23)c(Cl)cc1Cl` [Compound 28, 2,4-dichloro-5-[(2-cyano-7-fluoro-4-quinolyl)amino]-N,N-dimethyl-benzamide], the activation at 5 µM came to 45%.

`N#Cc1cc(Nc2c(Cl)cccc2Cl)c2cc(F)ccc2n1` [Compound 29, 4-(2,6-dichloroanilino)-6-fluoro-quinoline-2-carbonitrile]: the activation at 5 µM was determined as 41%.

For the molecule `COc1cc2c(Nc3cc(OC)c(Cl)cc3Cl)cc(C#N)nc2cc1F` [Compound 75, 4-(2,4-dichloro-5-methoxy-anilino)-7-fluoro-6-methoxy-quinoline-2-carbonitrile], the activation at 5 µM amounted to 116%.
